# Where two headings read alike, the source gives them in different places.
# What was measured:
# [1] = rats, experimental colitis; Cuzzocrea et al. 2001; cited from earlier work
# [2] = hamster oral mucositis; Murphy et al. 2008; cited from earlier work
# [3] = lethal total body irradiation, adult mice; Thompson et al. 2010; cited from earlier work
# [4] = rat model; Salvemini et al. 1999; cited from earlier work
# [5] = rat collagen-induced arthritis; Salvemini et al. 2001; cited from earlier work
# [6] = test system: Colon 26 mouse colon cancer cell line tumors; test: Colon 26 syngeneic tumor model, GC4419 with anti-PD1; assay type: in vivo, Balb/C mice; conditions: 1 and 3 mg/kg bid ip GC4419 added to anti-PD1 5 mg/kg; versus anti-PD1 alone
# Description: GC4419 was administered in combination with the T-cell checkpoint inhibitor anti-PD-1 (RMP1-14) to female Balb/C mice implanted with the mouse colon cancer cell line, Colon 26 beginning on day 3 post-implantation. Tumors were allowed to grow for up to 52 days or until they exceeded 1000 mm3.
# Treatments with the antibody and GC4419 are described in Table 1.
# Tumor volumes were assessed and median and mean values are shown in FIG. 1 (Median Tumor Volumes in Colon 26 Model) and 2 (Mean Tumor Volumes in Colon 26 Model).
# [7] = test system: 4T1 tumors and lung metastases; test: 4T1 metastatic breast cancer model, GC4419 with radiation and anti-CTLA4; assay type: in vivo, mice (syngeneic)
# Description: Specifically, as shown in FIGS. 4A-4C, GC4419 decreases metastasis and enhances the efficacy of the combination of radiation and T-cell checkpoint inhibitor anti-CTLA4 (9D9) in the 4T1 metastatic breast cancer model. Syngeneic animals were subcutaneously implanted with 4T1 cells to form a xenograft. On day 12, when no lung metastasis is present, animals were treated with GC4419 (24 mg/kg), 15 Gy of 250 kVp X-rays, and/or anti CTLA-4 antibodies (10 mg/kg) or IgG control antibodies, as described in Table 3 below. Tumor growth was tracked as a function of time and at day 35 post implantation ([…]), animals were euthanized and lungs collected to count metastases.
# 4T1 tumors [8] = test: 4T1 tumor volume with GC4419 and/or radiation in immunocompetent mice; assay type: in vivo, Balb/c mice
# Description: (§1) In separate studies, either syngeneic Balb/c mice or immunodeficient nu/nu mice were subcutaneously implanted with 4T1 cells to form a xenograft. On day 11 after transplant, animals were treated with GC4419 (24 mg/kg) and/or 15 Gy of 250 kVp X-rays, as described in Table 5 below.
# (§2) Tumor volume was tracked as a function of time, and Day 17 (the last common day of measurement between the two studies given the rapid growth of tumors in the nu/nu mice) mean tumor volumes are described in Table 6 below.
# 4T1 tumors [9] = test: 4T1 tumor volume with GC4419 and/or radiation in immunodeficient mice; assay type: in vivo; conditions: nu/nu mice
# Description: as §1, §2
# [10] = test system: Lewis lung carcinoma (LLC) tumors; test: Lewis lung carcinoma tumors, GC4419 plus ionizing radiation; assay type: in vivo, C57.CL/6 mice
# Description: The effects of GC4419 plus IR on intratumoral levels of key immune cell populations were tested in Lewis lung carcinoma (LLC) tumors. In the study, 4 week old C57.CL/6 mice were injected with LLC cells to form tumors. At 13 days post-injection, animals were treated with GC4419 at doses of 3, 10 and 24 mg/kg and 15 Gy of 250 kVp X-rays. Tumor growth was tracked until tumor size exceeded 2 cm in any one direction. In addition, tumor infiltrating lymphocyte populations were assessed in separate animals via flow cytometry at various time points post IR (15 Gy) in combination with 10 mg/kg GC4419 treatment. Intratumoral populations of neutrophils, macrophages and activated cytotoxic T-cells were altered due to the presence of GC4419 either with or without ionizing radiation, as shown in FIG. 6B. However, it is unclear from this study alone whether these transient alterations in the immune cell populations caused by GC4419 contribute to improved results for the combination of GC4419 with checkpoint inhibitor therapy combined or in the absence of radiation therapy.
# [11] = test system: 4T1 mouse breast cancer tumors; test: 4T1 syngeneic tumor model, GC4419 with anti-CTLA-4, start day varied (Example 5); assay type: in vivo, Balb/C mice
# Description: GC4419 was administered in combination with the T-cell checkpoint inhibitor anti-CTLA-4 (9D9) to female Balb/C mice implanted subcutaneously with the mouse breast cancer cell line, 4T1. Tumors were allowed to grow for up to 45 days or until they exceeded 3000 mm^3 (or Group mean of 2000 mm^3).
# Treatments with the antibody and GC4419 are described in Table 7.
# Tumor volumes were assessed and mean values are shown in FIG. 5A (Mean Tumor Volumes in 4T1 Model).
# FIG. 5B depicts such an improvement occurring for dosing of GC4419 that is delayed until day 13 after a start of anti-CTLA4 administration (i.e., after the 5th dose of anti-CTLA4). In comparison of arms treated with (a) combination of GC4419 with anti-CTLA4 treatment and (b) anti-CTLA4 treatment alone, no difference should be apparent between the two arms before addition of GC4419 treatment. As a result tumor control was assessed by normalizing the tumor growth curves of each arm with respect to the day on which treatment with GC4419 was started in the combination arm (i.e., day 13 in FIG. 5B).
# [12] = test system: 4T1 mouse breast cancer tumors; test: 4T1 syngeneic model, GC4419 with anti-CTLA-4, delayed/skip dosing (Example 6); assay type: in vivo, Balb/C mice
# Description: GC4419 was administered in combination with the T-cell checkpoint inhibitor anti-CTLA-4 (9D9) to female Balb/C mice implanted subcutaneously with the mouse breast cancer cell line, 4T1. Tumors were allowed to grow for up to 35 days or until they exceeded 3000 mm^3 (or Group mean of 2000 mm^3).
# Treatments with the antibody and GC4419 are described in Table 8.
# Tumor volumes were assessed and mean values are shown in FIGS. 5C and 5D (Mean Tumor Volumes in 4T1 Model).
# LLC tumors = test: LLC abscopal study, GC4419 with radiation and anti-CTLA4, primary and secondary tumors; assay type: in vivo, C57Bl/6 mice
# Description: Syngeneic animals (C57Bl/6 mice) were subcutaneously implanted with LLC cells in the right flank to form a xenograft (primary tumor). On day 2, the same animals were subcutaneously implanted with LLC cells in the left flank for form another xenograft (secondary tumor). On day 8, some animals began treatment with anti CTLA-4 antibodies (200 μg) as indicated below. On day 11, when both primary and secondary tumors were palpable, all animals were treated with GC4419 (24 mg/kg), 15 Gy of 250 kVp X-rays, and/or anti CTLA-4 antibodies (10 mg/kg), as described in Table 10 below. Tumor growth was tracked as a function of time for both primary and secondary tumors.
# [13] = rat model; Tuder et al. 2003; cited from earlier work
# [14] = head-and-neck cancer patients undergoing chemoradiation therapy; Anderson 2015; cited from earlier work
smiles,measurement,setting,value
[Cl-].[Cl-].[Mn+2].c1cc2nc(c1)CN[C@@H]1CCCC[C@H]1NCCN[C@@H]1CCCC[C@H]1NC2 [GC4403],injury to the colon,[1],very significantly reduce the injury to the colon
same,radiation damage,[2],attenuate the radiation damage
same,radiation damage,[3],attenuate the radiation damage
same,inflammation,[4],inhibit inflammation
same,joint disease,[5],prevent joint disease
[Cl][Mn][Cl].c1cc2nc(c1)CN[C@H]1CCCC[C@@H]1NCCN[C@H]1CCCC[C@@H]1NC2 [GC4419],tumor growth,[6],further decrease
same,"sensitization of tumors to radiation (tumor volume, FIG. 4A)",[7]; GC4419 24 mg/kg D12-16 with 15 Gy RT D12,sensitized 4T1 tumors to radiation regardless of GC4419 dose
same,"efficacy of combination anti CTLA-4 therapy and radiation therapy (tumor volume, FIG. 4B)",[7]; GC4419 24 mg/kg added to anti-CTLA4 10 mg/kg + 15 Gy RT,enhanced the efficacy of combination anti CTLA-4 therapy and radiation therapy
same,number of surface lung metastases (FIG. 4C),[7]; day 35 post implantation,significantly decreased the number of metastases
same,% Mice without Lung Metastases,"[7]; day 35 post implantation, GC4419 24 mg/kg, RT 15 Gy, anti-CTLA4 10 mg/kg",0%
same,V(x) / V(Group 3),"4T1 tumors [8]; Balb/c mice, Day 17 volume relative to RT alone group",1.25
same,"Day 17 Tumor Volume, V","4T1 tumors [8]; Balb/c mice, mean, GC4419 24 mg/kg D11-15, RT 15 Gy D11",1923 mm^3
same,tumor growth,"4T1 tumors [8]; Balb/c mice, radiation plus GC4419 versus radiation alone",further tumor growth reduction
same,increase in response to combined radiation and GC4419 treatment,4T1 tumors [8]; Balb/c versus nu/nu mice,greater in immunocompetent mice than in immunodeficient mice
same,"Day 17 Tumor Volume, V","4T1 tumors [9]; mean, GC4419 24 mg/kg D11-15, RT 15 Gy D11",All sac'd at Day 13
same,tumor growth,4T1 tumors [9]; radiation plus GC4419 versus radiation alone,further tumor growth reduction
same,"intratumoral populations of neutrophils, macrophages and activated cytotoxic T-cells","[10]; 10 mg/kg GC4419 with or without IR 15 Gy, flow cytometry, various time points",altered
same,sensitization of tumors to ionizing radiation (FIG. 6A),"[10]; GC4419 3, 10 and 24 mg/kg with 15 Gy",sensitized tumors to ionizing radiation regardless of dose
same,tumor growth,"[11]; 3 mg/kg GC4419 QD x 21 added, started at least 3 days after antibody treatment",further decrease
same,normalized tumor growth (FIG. 5B),"[11]; GC4419 start delayed until day 13 after start of anti-CTLA4, versus anti-CTLA4 alone",reduced tumor growth
same,tumor volumes,"[12]; 3 mg/kg or 10 mg/kg GC4419 added to anti-CTLA4, started at least 3 days after antibody",significant further decrease in tumor volumes
same,tumor volume (FIG. 5D),"[12]; GC4419 10 mg/kg versus 3 mg/kg, with anti-CTLA4",improved results over a dose of 3 mg/kg
same,tumor volume (FIG. 5C),[12]; skipping GC4419 on days when anti-CTLA4 was administered,"further improved the results, albeit slightly"
same,sensitization of primary and secondary tumors to radiation (growth delay),LLC tumors; GC4419 D11-15 with 15 Gy RT D11 to primary tumor,sensitized primary and secondary tumors to radiation
same,growth of secondary tumors (FIG. 8E),LLC tumors; GC4419 added to anti CTLA-4 therapy and radiation therapy,slowed the growth of secondary tumors
same,sensitization of primary tumors to combination of anti CTLA-4 therapy and radiation therapy,LLC tumors; GC4419 added to anti-CTLA4 200 μg + 15 Gy RT,sensitized
same,VEGFr inhibitor-induced pulmonary disease,[13],attenuate VEGFr inhibitor-induced pulmonary disease
same,oral mucositis,[14],reduce oral mucositis

# Source: patent publication US12551581B2, “Combination cancer immunotherapy with pentaaza macrocyclic ring complex” (Galera Labs, LLC, priority 2017, dated 2026)
